Data: ChEMBL document CHEMBL1201862, “PubChem BioAssay data set” (2004)
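Each compound was tested at five concentrations against cells in 96-well plates for 48 hours. Abbreviation: GI50, concentration required for 50% inhibition of growth.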 The source made the active and inactive calls. No stated cut-off is given here; in the data, active = GI50 up to about 1.1 µM and inactive = higher.

Key:
Assay in all cases: growth of human tumour cells (NCI), 48 h
[1] = test system: 786-0
[2] = test system: A549
[3] = test system: ACHN
[4] = test system: CAKI-1
[5] = test system: CCRF-CEM
[6] = test system: COLO 205
[7] = test system: DLD-1
[8] = test system: DMS-114
[9] = test system: DMS-273
[10] = test system: EKVX
[11] = test system: HCC 2998
[12] = test system: HCT-116
[13] = test system: HCT-15
[14] = test system: HL-60
[15] = test system: HOP-18
[16] = test system: HOP-62
[17] = test system: HOP-92
[18] = test system: HT-29
[19] = test system: IGROV-1
[20] = test system: K562
[21] = test system: KM-20L2
[22] = test system: KM12
[23] = test system: LOX IMVI
[24] = test system: LXFL 529
[25] = test system: M14
[26] = test system: M19-MEL
[27] = test system: MOLT-4
[28] = test system: Malme-3M
[29] = test system: NCI-H226
[30] = test system: NCI-H23
[31] = test system: NCI-H460
[32] = test system: OVCAR-3
[33] = test system: OVCAR-4
[34] = test system: OVCAR-5
[35] = test system: OVCAR-8
[36] = test system: RXF 393
[37] = test system: RXF 631
[38] = test system: SF-268
[39] = test system: SF-295
[40] = test system: SF-539
[41] = test system: SK-MEL-28
[42] = test system: SK-MEL-2
[43] = test system: SK-MEL-5
[44] = test system: SK-OV-3
[45] = test system: SN12C
[46] = test system: SNB-19
[47] = test system: SNB-75
[48] = test system: SNB-78
[49] = test system: SR
[50] = test system: SW-620
[51] = test system: TK-10
[52] = test system: U-251
[53] = test system: UACC-257
[54] = test system: UACC-62
[55] = test system: UO-31
[56] = test system: XF498
[57] = test system: A498
[58] = test system: NCI-H522
[59] = test system: RPMI-8226

## O=c1nc2sc3ccc4ccccc4c3n2nc1-c1ccccc1
[1]
  GI50: 18.7 µM (inactive)
[2]
  GI50: 28.6 µM (inactive)
[3]
  GI50: 27.8 µM (inactive)
[4]
  GI50: 31.1 µM (inactive)
[5]
  GI50: > 100 µM (inactive)
[6]
  GI50: 56.2 µM (inactive)
[7]
  GI50: 35.6 µM (inactive)
[8]
  GI50: > 100 µM (inactive)
[9]
  GI50: 39.2 µM (inactive)
[10]
  GI50: 41.8 µM (inactive)
[11]
  GI50: > 100 µM (inactive)
[12]
  GI50: 21.7 µM (inactive)
[13]
  GI50: 45.1 µM
[14]
  GI50: > 100 µM (inactive)
[15]
  GI50: 30.5 µM (inactive)
[16]
  GI50: 26.7 µM (inactive)
[17]
  GI50: 21.4 µM (inactive)
[18]
  GI50: 94.8 µM (inactive)
[19]
  GI50: 25.4 µM (inactive)
[20]
  GI50: > 100 µM (inactive)
[21]
  GI50: 62.8 µM (inactive)
[22]
  GI50: 63.5 µM (inactive)
[23]
  GI50: 15.1 µM (inactive)
[24]
  GI50: 44.7 µM (inactive)
[25]
  GI50: 44.4 µM (inactive)
[26]
  GI50: 78.3 µM (inactive)
[27]
  GI50: > 100 µM (inactive)
[28]
  GI50: 21.4 µM (inactive)
[29]
  GI50: 59.2 µM (inactive)
[30]
  GI50: 27.2 µM (inactive)
[31]
  GI50: 22.1 µM (inactive)
[32]
  GI50: 19 µM (inactive)
[33]
  GI50: 14.7 µM (inactive)
[34]
  GI50: > 100 µM (inactive)
[35]
  GI50: 18.9 µM (inactive)
[36]
  GI50: 21 µM (inactive)
[37]
  GI50: 36.6 µM (inactive)
[38]
  GI50: 37.3 µM (inactive)
[39]
  GI50: 16.8 µM (inactive)
[40]
  GI50: 14.8 µM (inactive)
[41]
  GI50: 35.6 µM (inactive)
[42]
  GI50: > 100 µM (inactive)
[43]
  GI50: 59.2 µM (inactive)
[44]
  GI50: 36.1 µM (inactive)
[45]
  GI50: 27.2 µM (inactive)
[46]
  GI50: 29.4 µM (inactive)
[47]
  GI50: 21.1 µM (inactive)
[48]
  GI50: 35.8 µM (inactive)
[49]
  GI50: 71.6 µM (inactive)
[50]
  GI50: 32.5 µM (inactive)
[51]
  GI50: 23.1 µM (inactive)
[52]
  GI50: 19 µM (inactive)
[53]
  GI50: 99.3 µM (inactive)
[54]
  GI50: 64.4 µM (inactive)
[55]
  GI50: 22.3 µM (inactive)
[56]
  GI50: 29.6 µM (inactive)

## C[C@]12CCC3[C@@H](CC[C@@H]4c5nonc5CC[C@]34C)C1CCC(=O)N2 (stereo partly specified)
[1]
  GI50: > 100 µM (inactive)
[57]
  GI50: > 100 µM (inactive)
[2]
  GI50: > 100 µM (inactive)
[3]
  GI50: > 100 µM (inactive)
[4]
  GI50: > 100 µM (inactive)
[5]
  GI50: > 100 µM (inactive)
[6]
  GI50: > 100 µM (inactive)
[9]
  GI50: > 100 µM (inactive)
[10]
  GI50: 68.9 µM (inactive)
[12]
  GI50: > 100 µM (inactive)
[13]
  GI50: > 100 µM
[14]
  GI50: 93.8 µM (inactive)
[15]
  GI50: > 100 µM (inactive)
[16]
  GI50: > 100 µM (inactive)
[17]
  GI50: 95.7 µM (inactive)
[18]
  GI50: > 100 µM (inactive)
[19]
  GI50: > 100 µM (inactive)
[20]
  GI50: > 100 µM (inactive)
[21]
  GI50: > 100 µM (inactive)
[22]
  GI50: > 100 µM (inactive)
[23]
  GI50: > 100 µM (inactive)
[24]
  GI50: > 100 µM (inactive)
[25]
  GI50: > 100 µM (inactive)
[26]
  GI50: > 100 µM (inactive)
[27]
  GI50: > 100 µM (inactive)
[28]
  GI50: > 100 µM (inactive)
[29]
  GI50: > 100 µM (inactive)
[30]
  GI50: > 100 µM (inactive)
[31]
  GI50: > 100 µM (inactive)
[58]
  GI50: 56.1 µM (inactive)
[32]
  GI50: > 100 µM (inactive)
[33]
  GI50: > 100 µM (inactive)
[34]
  GI50: > 100 µM (inactive)
[35]
  GI50: > 100 µM (inactive)
[59]
  GI50: 67.9 µM (inactive)
[36]
  GI50: > 100 µM (inactive)
[37]
  GI50: > 100 µM (inactive)
[38]
  GI50: > 100 µM (inactive)
[39]
  GI50: > 100 µM (inactive)
[40]
  GI50: > 100 µM (inactive)
[41]
  GI50: > 100 µM (inactive)
[42]
  GI50: 0.356 µM (active)
[43]
  GI50: > 100 µM (inactive)
[44]
  GI50: > 100 µM (inactive)
[45]
  GI50: > 100 µM (inactive)
[46]
  GI50: > 100 µM (inactive)
[47]
  GI50: 55 µM (inactive)
[48]
  GI50: > 100 µM (inactive)
[50]
  GI50: > 100 µM (inactive)
[51]
  GI50: > 100 µM (inactive)
[52]
  GI50: > 100 µM (inactive)
[53]
  GI50: > 100 µM (inactive)
[54]
  GI50: > 100 µM (inactive)
[55]
  GI50: > 100 µM (inactive)
[56]
  GI50: > 100 µM (inactive)
